# Test results: PubChem BioAssay AID328 (DTP/NCI, 2004)
# Where “and” joins values, the source holds several entries; their conditions need not be identical. Identical values can stand only once. Toxic doses and inconclusive results are not listed.
# System: BDF1 mice, P388 leukemia ip, median survival T/C
# Test: NCI In Vivo Anticancer Drug Screen. Data for tumor model P388 Leukemia (intraperitoneal) in B6D2F1 (BDF1) mice
# Settings: endpoint: median survival time, higher = longer survival
# In short: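 Read-out is survival of treated animals expressed relative to the vehicle group, as a T/C ratio.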
smiles,measurement,setting,value
O=c1[nH]cc(F)c(=O)[nH]1,T/C,"dose: 5.0 mg/kg/injection, schedule: Q03HX024 (ip), vehicle: saline",210 % of control
same,T/C,"dose: 7.5 mg/kg/injection, schedule: Q01DX009 (ip), vehicle: saline",166 % of control and 179 % of control and 184 % of control
same,T/C,"dose: 7.5 mg/kg/injection, schedule: Q03HX024 (ip), vehicle: saline",219 % of control
same,T/C,"dose: 8.0 mg/kg/injection, schedule: Q01DX005 (ip), vehicle: saline",163 % of control
same,T/C,"dose: 9.4 mg/kg/injection, schedule: Q04DX003 (ip), vehicle: saline",120 % of control
same,T/C,"dose: 10.0 mg/kg/injection, schedule: Q01DX010 (ip), vehicle: acetone",95 % of control
same,T/C,"dose: 10.0 mg/kg/injection, schedule: Q03HX024 (ip), vehicle: saline",233 % of control
same,T/C,"dose: 11.0 mg/kg/injection, schedule: Q01DX009 (ip), vehicle: saline",211 % of control
same,T/C,"dose: 13.0 mg/kg/injection, schedule: Q01DX009 (ip), vehicle: saline",122 % of control
same,T/C,"dose: 13.2 mg/kg/injection, schedule: Q01DX009 (ip), vehicle: saline",250 % of control
same,T/C,"dose: 13.3 mg/kg/injection, schedule: Q01DX009 (ip), vehicle: Klucel (hydroxypropylcellulose) (HPC)",150 % of control
same,T/C,"dose: 13.3 mg/kg/injection, schedule: Q01DX009 (ip), vehicle: saline sonified",181 % of control
same,T/C,"dose: 14.0 mg/kg/injection, schedule: Q01DX009 (ip), vehicle: saline",169 % of control
same,T/C,"dose: 15.0 mg/kg/injection, schedule: Q03HX024 (ip), vehicle: saline",254 % of control
same,T/C,"dose: 16.0 mg/kg/injection, schedule: Q01DX005 (ip), vehicle: saline",170 % of control
same,T/C,"dose: 16.0 mg/kg/injection, schedule: Q01DX009 (ip), vehicle: saline",228 % of control and 169 % of control
same,T/C,"dose: 20.0 mg/kg/injection, schedule: Q01DX005 (ip), vehicle: water",205 % of control
same,T/C,"dose: 20.0 mg/kg/injection, schedule: Q01DX009 (ip), vehicle: Klucel (hydroxypropylcellulose) (HPC)",100 % of control
same,T/C,"dose: 20.0 mg/kg/injection, schedule: Q01DX009 (ip), vehicle: saline sonified",113 % of control
same,T/C,"dose: 20.0 mg/kg/injection, schedule: Q01DX010 (ip), vehicle: acetone",213 % of control
same,T/C,"dose: 20.0 mg/kg/injection, schedule: Q04DX003 (ip), vehicle: saline",166 % of control
same,T/C,"dose: 22.5 mg/kg/injection, schedule: Q03HX024 (ip), vehicle: saline",112 % of control
same,T/C,"dose: 23.0 mg/kg/injection, schedule: Q01DX009 (ip), vehicle: saline",205 % of control
same,T/C,"dose: 24.0 mg/kg/injection, schedule: Q01DX009 (ip), vehicle: saline",243 % of control
same,T/C,"dose: 25.0 mg/kg/injection, schedule: Q04DX003 (ip), vehicle: water",150 % of control
same,T/C,"dose: 26.0 mg/kg/injection, schedule: Q04DX003 (ip), vehicle: saline",96 % of control and 111 % of control
same,T/C,"dose: 27.0 mg/kg/injection, schedule: Q01DX009 (ip), vehicle: Klucel (hydroxypropylcellulose) (HPC)",166 % of control
same,T/C,"dose: 27.0 mg/kg/injection, schedule: Q01DX009 (ip), vehicle: saline sonified",181 % of control
same,T/C,"dose: 27.0 mg/kg/injection, schedule: Q04DX003 (ip), vehicle: saline",154 % of control
same,T/C,"dose: 32.0 mg/kg/injection, schedule: Q01DX005 (ip), vehicle: saline",185 % of control
same,T/C,"dose: 36.0 mg/kg/injection, schedule: Q04DX003 (ip), vehicle: saline",153 % of control and 165 % of control
same,T/C,"dose: 39.0 mg/kg/injection, schedule: Q01DX009 (ip), vehicle: saline",87 % of control
same,T/C,"dose: 40.0 mg/kg/injection, schedule: Q01DX005 (ip), vehicle: water",185 % of control
same,T/C,"dose: 40.0 mg/kg/injection, schedule: Q01DX010 (ip), vehicle: acetone",100 % of control
same,T/C,"dose: 50.0 mg/kg/injection, schedule: Q01DX001 (ip), vehicle: saline",153 % of control
same,T/C,"dose: 50.0 mg/kg/injection, schedule: Q04DX003 (ip), vehicle: saline",152 % of control and 158 % of control
same,T/C,"dose: 50.0 mg/kg/injection, schedule: Q04DX003 (ip), vehicle: water",170 % of control
same,T/C,"dose: 65.0 mg/kg/injection, schedule: Q04DX003 (ip), vehicle: saline",98 % of control
same,T/C,"dose: 66.0 mg/kg/injection, schedule: Q01DX001 (ip), vehicle: saline",100 % of control and 111 % of control
same,T/C,"dose: 75.0 mg/kg/injection, schedule: Q01DX001 (ip), vehicle: water",150 % of control
same,T/C,"dose: 75.0 mg/kg/injection, schedule: Q04DX003 (ip), vehicle: saline",163 % of control and 196 % of control
same,T/C,"dose: 80.0 mg/kg/injection, schedule: Q01DX010 (ip), vehicle: saline",90 % of control
same,T/C,"dose: 88.0 mg/kg/injection, schedule: Q01DX001 (ip), vehicle: saline",99 % of control and 108 % of control
same,T/C,"dose: 100.0 mg/kg/injection, schedule: Q04DX003 (ip), vehicle: water",190 % of control
same,T/C,"dose: 108.0 mg/kg/injection, schedule: Q04DX003 (ip), vehicle: saline",98 % of control
same,T/C,"dose: 160.0 mg/kg/injection, schedule: Q01DX001 (ip), vehicle: saline",104 % of control and 108 % of control and 117 % of control
same,T/C,"dose: 175.0 mg/kg/injection, schedule: Q01DX001 (ip), vehicle: saline",150 % of control
same,T/C,"dose: 180.0 mg/kg/injection, schedule: Q04DX003 (ip), vehicle: saline",100 % of control
same,T/C,"dose: 200.0 mg/kg/injection, schedule: Q04DX003 (ip), vehicle: water",100 % of control
same,T/C,"dose: 225.0 mg/kg/injection, schedule: Q01DX001 (ip), vehicle: saline",117 % of control
same,T/C,"dose: 240.0 mg/kg/injection, schedule: Q01DX001 (ip), vehicle: saline",105 % of control and 106 % of control
same,T/C,"dose: 250.0 mg/kg/injection, schedule: Q01DX001 (ip), vehicle: saline",90 % of control
same,T/C,"dose: 360.0 mg/kg/injection, schedule: Q01DX001 (ip), vehicle: saline",109 % of control and 111 % of control
same,T/C,"dose: 400.0 mg/kg/injection, schedule: Q01DX001 (ip), vehicle: saline",100 % of control
